Reference: PubChem BioAssay (NCI)
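Interpolation was linear, between the two tested concentrations surrounding the appropriate level; five concentrations were tested over 48 hours in 96-well plates. At the TGI there is no net growth.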

Key:
Test in all cases: NCI-60 cell line screen, 48 h
786-0 renal = system: 786-0 renal
A498 renal = system: A498 renal
A549 NSCLC = system: A549 NSCLC
ACHN renal = system: ACHN renal
CAKI-1 renal = system: CAKI-1 renal
CCRF-CEM leukemia = system: CCRF-CEM leukemia
COLO 205 colon = system: COLO 205 colon
DLD-1 colon = system: DLD-1 colon
DMS 114 small cell lung = system: DMS 114 small cell lung
DMS 273 small cell lung = system: DMS 273 small cell lung
EKVX NSCLC = system: EKVX NSCLC
HCC-2998 colon = system: HCC-2998 colon
HCT-116 colon = system: HCT-116 colon
HCT-15 colon = system: HCT-15 colon
HL-60(TB) leukemia = system: HL-60(TB) leukemia
HOP-18 NSCLC = system: HOP-18 NSCLC
HOP-62 NSCLC = system: HOP-62 NSCLC
HOP-92 NSCLC = system: HOP-92 NSCLC
HT29 colon = system: HT29 colon
IGROV1 ovarian = system: IGROV1 ovarian
KM12 colon = system: KM12 colon
KM20L2 colon = system: KM20L2 colon
LOX IMVI melanoma = system: LOX IMVI melanoma
LXFL 529 NSCLC = system: LXFL 529 NSCLC
M14 melanoma = system: M14 melanoma
M19-MEL melanoma = system: M19-MEL melanoma
MALME-3M melanoma = system: MALME-3M melanoma
MOLT-4 leukemia = system: MOLT-4 leukemia
NCI-H226 lung = system: NCI-H226 lung
NCI-H460 lung = system: NCI-H460 lung
NCI-H522 lung = system: NCI-H522 lung
OVCAR-3 ovarian = system: OVCAR-3 ovarian
OVCAR-4 ovarian = system: OVCAR-4 ovarian
OVCAR-5 ovarian = system: OVCAR-5 ovarian
OVCAR-8 ovarian = system: OVCAR-8 ovarian
RPMI-8226 leukemia = system: RPMI-8226 leukemia
RXF 393 renal = system: RXF 393 renal
SF-268 CNS = system: SF-268 CNS
SF-295 CNS = system: SF-295 CNS
SF-539 CNS = system: SF-539 CNS
SK-MEL-28 melanoma = system: SK-MEL-28 melanoma
SK-MEL-5 melanoma = system: SK-MEL-5 melanoma
SK-OV-3 ovarian = system: SK-OV-3 ovarian
SN12C renal = system: SN12C renal
SNB-19 CNS = system: SNB-19 CNS
SNB-75 CNS = system: SNB-75 CNS
SNB-78 CNS = system: SNB-78 CNS
SR leukemia = system: SR leukemia
SW-620 colon = system: SW-620 colon
TK-10 renal = system: TK-10 renal
U251 CNS = system: U251 CNS
UACC-257 melanoma = system: UACC-257 melanoma
UACC-62 melanoma = system: UACC-62 melanoma
UO-31 renal = system: UO-31 renal
K-562 leukemia = system: K-562 leukemia
SK-MEL-2 melanoma = system: SK-MEL-2 melanoma
NCI-H23 lung = system: NCI-H23 lung

Measured: TGI

S=C1OC2C3C4CC5C3C(O1)C1C5C4C21 (centres undefined)
not listed: K-562 leukemia | SK-MEL-2 melanoma | NCI-H23 lung
> 100 µM: all other assays above

COc1ccc(CNc2cnc3cc(N)ccc3n2)cc1OC
not listed: A498 renal | HOP-18 NSCLC | HOP-92 NSCLC | IGROV1 ovarian | KM20L2 colon | LXFL 529 NSCLC | OVCAR-5 ovarian | RXF 393 renal | SK-OV-3 ovarian | SNB-78 CNS | U251 CNS | UACC-62 melanoma | NCI-H23 lung
> 100 µM: all other assays above

COc1ccc(/C=C/CO)cc1OC
not listed: A498 renal | CAKI-1 renal | CCRF-CEM leukemia | DLD-1 colon | HCT-116 colon | HL-60(TB) leukemia | HOP-18 NSCLC | HOP-62 NSCLC | LOX IMVI melanoma | M14 melanoma | NCI-H460 lung | NCI-H522 lung | OVCAR-4 ovarian
> 100 µM: all other assays above

C(=C1/CCCCC([n+]2ccccc2)=N1)/c1ccccc1
not listed: A498 renal | IGROV1 ovarian | KM12 colon | SK-MEL-5 melanoma | SNB-19 CNS | TK-10 renal | UACC-257 melanoma
> 100 µM: all other assays above

C[P+](C)(CC(F)(F)F)c1ccccc1
not listed: CAKI-1 renal | HOP-92 NSCLC | OVCAR-4 ovarian | SF-268 CNS | SK-MEL-28 melanoma
> 100 µM: all other assays above
